Data from PubChem BioAssay AID2060883 (Molecular Pharmacology Branch, DTP, NCI, 2025).

Test system: 843782-103-R-J1-PDC complex spheroid viability
Experiment: Anticancer human tumor 843782-103-R-J1-PDC patient-derived lung adenocarcinoma cell line growth inhibition [RAS]
Details: for IC50: curve of first compound; for viability, T/C: stronger effect = lower value; active = viability on the fitted dose curve at most 10% of control; inactive = the rest
Method in brief: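 Agents were tested in combination matrices in half-log decrements from a top concentration at or near clinical Cmax (10 microM if undetermined). Targets were multi-cell spheroids of tumour lines plus HUVEC and MSC stromal cells.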
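Also: viability read after seven days of compound exposure.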

CCN1CCN(Cc2ccc(Nc3ncc(F)c(-c4cc(F)c5nc(C)n(C(C)C)c5c4)n3)nc2)CC1 + CCn1c(-c2cc(N3CCN(C)CC3)cnc2C(C)OC)c2c3cc(ccc31)-c1csc(n1)CC(NC(=O)C1CC1C)C(=O)N1CCCC(N1)C(=O)OCC(C)(C)C2
inactive: viability, T/C (second compound 0.000949 µM, first compound 0.00316 µM) 79.5% | viability, T/C (second compound 0.000949 µM, first compound 0.01 µM) 83.1% | viability, T/C (second compound 0.000949 µM, first compound 0.0316 µM) 78.2% | viability, T/C (second compound 0.000949 µM, first compound 0.1 µM) 73% | viability, T/C (second compound 0.000949 µM, first compound 0.316 µM) 63.4% | viability, T/C (second compound 0.000949 µM, first compound 1 µM) 34.5% | viability, T/C (second compound 0.003 µM, first compound 0.00316 µM) 64% | viability, T/C (second compound 0.003 µM, first compound 0.01 µM) 66.3% | viability, T/C (second compound 0.003 µM, first compound 0.0316 µM) 57.1% | viability, T/C (second compound 0.003 µM, first compound 0.1 µM) 52.2% | viability, T/C (second compound 0.003 µM, first compound 0.316 µM) 41.8% | viability, T/C (second compound 0.003 µM, first compound 1 µM) 29.9% | viability, T/C (second compound 0.00949 µM, first compound 0.00316 µM) 45.9% | viability, T/C (second compound 0.00949 µM, first compound 0.01 µM) 42.9% | viability, T/C (second compound 0.00949 µM, first compound 0.0316 µM) 34.4% | viability, T/C (second compound 0.00949 µM, first compound 0.1 µM) 31.1% | viability, T/C (second compound 0.00949 µM, first compound 0.316 µM) 30.1% | viability, T/C (second compound 0.00949 µM, first compound 1 µM) 20.8% | viability, T/C (second compound 0.03 µM, first compound 0.00316 µM) 24.5% | viability, T/C (second compound 0.03 µM, first compound 0.01 µM) 22.6% | viability, T/C (second compound 0.03 µM, first compound 0.0316 µM) 21% | viability, T/C (second compound 0.03 µM, first compound 0.1 µM) 20% | viability, T/C (second compound 0.03 µM, first compound 0.316 µM) 18.2% | viability, T/C (second compound 0.03 µM, first compound 1 µM) 17% | viability, T/C (second compound 0.0949 µM, first compound 0.00316 µM) 17.9% | viability, T/C (second compound 0.0949 µM, first compound 0.01 µM) 16.1% | viability, T/C (second compound 0.0949 µM, first compound 0.0316 µM) 15.8% | viability, T/C (second compound 0.0949 µM, first compound 0.1 µM) 15.2% | viability, T/C (second compound 0.0949 µM, first compound 0.316 µM) 16.1% | viability, T/C (second compound 0.0949 µM, first compound 1 µM) 14.2% | viability, T/C (second compound 0.3 µM, first compound 0.00316 µM) 17.1% | viability, T/C (second compound 0.3 µM, first compound 0.01 µM) 12.4% | viability, T/C (second compound 0.3 µM, first compound 0.0316 µM) 14% | viability, T/C (second compound 0.3 µM, first compound 0.1 µM) 12.3% | viability, T/C (second compound 0.3 µM, first compound 0.316 µM) 13.9% | viability, T/C (second compound 0.3 µM, first compound 1 µM) 12.3%
531 nM: IC50 (second compound 0.000949 µM)
< 3.16 nM: IC50 (second compound 0.00949 µM) | IC50 (second compound 0.03 µM) | IC50 (second compound 0.0949 µM) | IC50 (second compound 0.3 µM)
122 nM: IC50 (second compound 0.003 µM)

CC1(C)CCC(Nc2ncc(C(F)(F)F)c(-c3c[nH]c4c(P(C)(C)=O)c(C#N)ccc34)n2)CN1 (centres undefined) + C#Cc1c(F)ccc2cc(O)cc(-c3ncc4c(N5CC6CCC(C5)N6)nc(OCC56CCCN5CC(F)C6)nc4c3F)c12
5.68 nM: IC50 (second compound 3.16 µM)
17.4 nM: IC50 (second compound 0.1 µM)
0.949 nM: IC50 (second compound 10 µM)
22.6 nM: IC50 (second compound 0.0316 µM)
inactive: viability, T/C (second compound 0.0316 µM, first compound 0.000949 µM) 102% | viability, T/C (second compound 0.0316 µM, first compound 0.003 µM) 93.6% | viability, T/C (second compound 0.0316 µM, first compound 0.00949 µM) 72.1% | viability, T/C (second compound 0.0316 µM, first compound 0.03 µM) 44.9% | viability, T/C (second compound 0.0316 µM, first compound 0.0949 µM) 21.1% | viability, T/C (second compound 0.0316 µM, first compound 0.3 µM) 22.7% | viability, T/C (second compound 0.1 µM, first compound 0.000949 µM) 103% | viability, T/C (second compound 0.1 µM, first compound 0.003 µM) 88.1% | viability, T/C (second compound 0.1 µM, first compound 0.00949 µM) 58.6% | viability, T/C (second compound 0.1 µM, first compound 0.03 µM) 42.5% | viability, T/C (second compound 0.1 µM, first compound 0.0949 µM) 26.8% | viability, T/C (second compound 0.1 µM, first compound 0.3 µM) 23.1% | viability, T/C (second compound 0.316 µM, first compound 0.000949 µM) 101% | viability, T/C (second compound 0.316 µM, first compound 0.003 µM) 76.2% | viability, T/C (second compound 0.316 µM, first compound 0.00949 µM) 58.1% | viability, T/C (second compound 0.316 µM, first compound 0.03 µM) 51.5% | viability, T/C (second compound 0.316 µM, first compound 0.0949 µM) 25.6% | viability, T/C (second compound 0.316 µM, first compound 0.3 µM) 24.6% | viability, T/C (second compound 1 µM, first compound 0.000949 µM) 88.5% | viability, T/C (second compound 1 µM, first compound 0.003 µM) 69% | viability, T/C (second compound 1 µM, first compound 0.00949 µM) 46.2% | viability, T/C (second compound 1 µM, first compound 0.03 µM) 30.9% | viability, T/C (second compound 1 µM, first compound 0.0949 µM) 26.4% | viability, T/C (second compound 1 µM, first compound 0.3 µM) 20.5% | viability, T/C (second compound 3.16 µM, first compound 0.000949 µM) 61% | viability, T/C (second compound 3.16 µM, first compound 0.003 µM) 57.4% | viability, T/C (second compound 3.16 µM, first compound 0.00949 µM) 44% | viability, T/C (second compound 3.16 µM, first compound 0.03 µM) 29.2% | viability, T/C (second compound 3.16 µM, first compound 0.0949 µM) 24.9% | viability, T/C (second compound 3.16 µM, first compound 0.3 µM) 24.6% | viability, T/C (second compound 10 µM, first compound 0.000949 µM) 46.6% | viability, T/C (second compound 10 µM, first compound 0.003 µM) 44.9% | viability, T/C (second compound 10 µM, first compound 0.00949 µM) 37.4% | viability, T/C (second compound 10 µM, first compound 0.03 µM) 59.2% | viability, T/C (second compound 10 µM, first compound 0.0949 µM) 26% | viability, T/C (second compound 10 µM, first compound 0.3 µM) 21.8%
20.1 nM: IC50 (second compound 0.316 µM)
7.9 nM: IC50 (second compound 1 µM)
